Data set [1] in a line: logD7.4 by shake-flask method. The conditions noted are these: pH 7.4. It is filed as physicochemical.
A short description of data set [2]: Solubility in aqueous buffer at pH 7.4. It is filed as physicochemical. The conditions noted are these: aqueous buffer at pH 7.4, n = 1; read-out: aq sol.
A short description of data set [3]: Plasma protein binding by equilibrium dialysis, human. It is filed as in vitro ADME. For orientation: In equilibrium dialysis only unbound substance equilibrates across the membrane.
Text: (§1) Human plasma (mixed gender) Ltd-People’s Hospital of Shandong Weifang Hi-
(§2) Tech Industrial Development Zone (Batch No. P-
(§3) Rat plasma (SD/mixed gender) BiolVT (Batch No. RAT501985)
(§4) Mouse plasma (CD-1/mixed gender) IPHASE or BiolVT (Batch No. MSE427337)
Data set [4] in a line: Plasma protein binding by equilibrium dialysis, rat. It is filed as in vitro ADME. To be noted: for fu, plasma % / %Unbound: 5 μM, equilibrium dialysis.
Text: as §1, §2, §3, §4
A short description of data set [5]: Metabolic stability in human liver microsomes. It is filed as in vitro ADME. (Liver microsomes are a subcellular fraction often used to study metabolism.)
A short description of data set [6]: Metabolic stability in rat liver microsomes. It is filed as in vitro ADME.
Data set [7] is described as follows: Metabolic stability in human hepatocytes. It is filed as in vitro ADME.
The nature of data set [8]: Metabolic stability in rat hepatocytes. It is filed as in vitro ADME.
In another data set the test system is Molt-4 cells. As to the kind of experiment: Cell viability assay (CellTiter-Glo), Molt-4. It is filed as cell-based, human. The conditions noted are these: BCR-ABL1 negative.
On the set-up of data set [9]: method as in NDA application no. 203341 Pharmacology Review(s) page 40. The conditions noted are these: nude mice, 50 mg/kg po and 5 mg/kg iv dosing, ref NDA application no. 203341 Pharmacology Review(s) page 40; cited from earlier work.
The next data set has as its system P-gp (MDR1). As to the kind of experiment: in vitro. To be noted: dog, MDCK-MDR1.
Another data set deals with Caco-2 cells. As to the kind of experiment: Caco-2 cell permeability. (Caco-2 cells form a polarised layer with tight junctions and transporters.)
Data set [10] relates to MDCKII-MDR1 cells. As to the kind of experiment: MDCKII-MDR1 cell permeability.
Text: (§5) Abbreviations: Papp, apparent permeability; AP, apical; BL, basolateral.
A further data set concerns KU812 cells. Put plainly: Cell viability assay (CellTiter-Glo), KU812. It is filed as cell-based, human. To be noted: read-out: IC50 (72 h), KU812 Cell Line, mean ± SEM, n = 3, unadjusted for FBS.
The next data set relates to MEG-01 cells. Put plainly: Cell viability assay (CellTiter-Glo), MEG-01. The conditions noted are these: read-out: IC50 (72 h), MEG-01 Cell Line, mean ± SEM, n = 3, unadjusted for FBS. It is filed as cell-based, human.
The subject of the next data set is SUP-B15 cells. As to the kind of experiment: Cell viability assay (CellTiter-Glo), SUP-B15. It is filed as cell-based, human. To be noted: read-out: IC50 (72 h), SUP-B15 Cell Line, mean ± SEM, n = 3, unadjusted for FBS.
A further data set deals with CYP2D6 (Homo sapiens, UniProt P10635). As to the kind of experiment: in vitro. The conditions noted are these: both, microsomes, CYP2D6 Inhibition percentage(%) at Top conc.
CYP2D6, sequence (P10635 whole entry): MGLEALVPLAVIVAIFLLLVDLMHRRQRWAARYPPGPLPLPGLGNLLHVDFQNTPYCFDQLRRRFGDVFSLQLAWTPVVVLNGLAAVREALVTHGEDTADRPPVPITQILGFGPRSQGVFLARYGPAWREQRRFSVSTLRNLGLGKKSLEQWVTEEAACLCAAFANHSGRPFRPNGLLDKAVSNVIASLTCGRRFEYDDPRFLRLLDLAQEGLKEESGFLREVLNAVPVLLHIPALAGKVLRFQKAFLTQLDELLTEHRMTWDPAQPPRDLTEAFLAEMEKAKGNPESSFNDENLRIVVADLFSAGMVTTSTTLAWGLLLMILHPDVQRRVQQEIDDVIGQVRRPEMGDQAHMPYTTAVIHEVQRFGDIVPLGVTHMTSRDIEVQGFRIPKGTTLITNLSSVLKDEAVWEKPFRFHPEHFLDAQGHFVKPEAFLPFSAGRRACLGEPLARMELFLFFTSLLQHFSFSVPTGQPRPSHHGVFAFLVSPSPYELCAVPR
The test system of data set [11] is MDCKII-MDR1 cells. The conditions noted are these: dog, MDCK-MDR1.
Text: as §5
A further data set can be described thus: in vitro. The conditions noted are these: human, Caco-2.

Each structure is given as a SMILES string. Converted amounts (≈) assume the structure as drawn. Read-outs that look alike come from different tables or passages of the source. Bounds are passed on as bounds.

Text for P-gp (MDR1): as §5

On to `COc1cc(Nc2c(C#N)cnc3cc(OCCCN4CCN(C)CC4)c(OC)cc23)c(Cl)cc1Cl` [bosutinib], for which the logD (commonly lipophilicity at a set pH, counting ionised and neutral species) at 2 h in data set [1] is 3.1. Moreover, the solubility in [2] amounted to 14 µM (≈ 7.43 µg/mL). The “fu, plasma % / %Unbound” value is given as 4.53% in [3] (5 μM, equilibrium dialysis); 7.2% in [4]; 7.20% in [4] (listed as Bosutinib). The recovery in data set [3] (both sexes) stood at 94%; in data set [4] (both sexes, SD), 91.1%; with P-gp (MDR1), 56%. Moreover, the fraction unbound at 6 h, 5 µM in data set [3] (both sexes, 5 μM, equilibrium dialysis, read-out: fu, plasma % / %Unbound) was 0.045. Also, the fraction unbound at 5 μM was 0.0453 in data set [3] (both sexes, read-out: %Bound (converted)) and 0.072 in data set [4] (both sexes, SD, read-out: fu, plasma % / %Unbound (converted)). In data set [4] (both sexes, SD), the share remaining – broadly, what is left of the initial amount, in per cent – at 6 h, 5 μM came out at 90.7%. Also, the “Remaining Percentage, 0.5 min” value in [5] (+Cofactors), in data set [5] (-Cofactors), in [6] (+Cofactors) and in [6] (-Cofactors) was 100.00% throughout. Also, the results for the “Remaining Percentage, 15 min” value in [5] (+Cofactors) and in [6] (+Cofactors) were 12.40% and 14.79%, respectively. For the same molecule, the “Remaining Percentage, 30 min” value in [5] (+Cofactors) came out at 2.94%; in [6] (+Cofactors), 5.02%. In addition, the “Remaining Percentage, 45 min” value amounted to 1.16% in [5] (+Cofactors) and 2.62% in data set [6] (+Cofactors). Also, the results for the “Remaining Percentage, 60 min” value in [5] (+Cofactors) and in [5] (-Cofactors) were “BLOD” and 91.23%, respectively. Further, the half-life (as a rule, the time needed for the level to fall by half in the phase considered) at 1 h in [5] (both sexes, pooled) was determined as 4.8 min; in data set [6] (male, SD, pooled) it was 5.3 min. The microsomal CLint at 1 h in [5] (both sexes, pooled, read-out: LMClint) amounted to 288 µL/min/mg; in data set [6] (male, SD, pooled, read-out: LMClint), 264 µL/min/mg. The “Remaining Percentages, 0.5 min” value in [7] and in data set [8] was 100.00% in each case. In addition, the results for the “Remaining Percentages, 15 min” value in [7] and in data set [8] were 73.99% and 50.17%, respectively. The figures for the “Remaining Percentages, 30 min” value in data set [7] and in data set [8] were 79.28% and 21.78%, respectively. The “Remaining Percentages, 60 min” value in data set [7] turned out to be 53.95%; in [8], 5.83%. For the same molecule, the “Remaining Percentages, 90 min” value in data set [7] worked out at 34.15%; in data set [8] it was 1.83%. For the same molecule, the “Remaining Percentages, 120 min” value came to 20.73% in data set [7] and 0.73% in data set [8]. Also, the half-life at 2 h in data set [7] (both sexes) came out at 54.9 min; in data set [8] (male, SD), 13.4 min. For the same molecule, the hepatocyte CLint (usually a measure of how fast metabolising enzymes remove a compound, apart from limits set by blood flow) at 2 h in data set [7] (both sexes) turned out to be 25.3 µL/min/1e6 cells; in data set [8] (male, SD), 103 µL/min/1e6 cells. The IC50 (usually the concentration that inhibits the measured activity by half) in the data set with Molt-4 cells (Homo sapiens, MOLT-4, read-out: IC50, Molt-4) was above 2 µM. Further, the AUCinf in data set [9] is reported as 11 677 h·nM. Besides, in [9], the maximum concentration (Cmax) (commonly the maximum level reached in the sampled fluid or tissue) is 1510 nM. Further, the “Recovery% (BL-AP)” value in the data set on Caco-2 cells worked out at 70.73%; in the data set with MDCKII-MDR1 cells [10] it was 65.52%.

As to `N.N.[Cl][Pt][Cl]` [Cisplatin, cisplatin], the IC50 worked out at 1.5 ± 0.103 µM in the data set on KU812 cells; 5.1 ± 0.318 µM in the data set with MEG-01 cells; 0.987 ± 0.036 µM in the data set with SUP-B15 cells; 1.34 ± 0.089 µM in the data set with Molt-4 cells (read-out: IC50 (72 h), Molt-4 Cell Line, 72 h).

For the molecule `Fc1ccc([C@@H]2CCNC[C@H]2COc2ccc3c(c2)OCO3)cc1` [Paroxetine], the inhibition (usually the relative decrease from the control value, in per cent) at 20 min at CYP2D6 was determined as 91.7%.

Consider `COCCc1ccc(OCC(O)CNC(C)C)cc1` (stereo not shown) [Metoprolol], for which, in the data set on MDCKII-MDR1 cells [11], the “Recovery% (BL-AP)” value turned out to be 96.11%. Also, in the data set “in vitro”, the Papp A→B – broadly, the apparent permeability from the apical to the basolateral side of a cell layer – at 2 h, 5 μM came to 23.1 ×10⁻⁶ cm/s; the Papp B→A (commonly the apparent permeability from the basolateral to the apical side of a cell layer) at 2 h, 5 μM is 21.8 ×10⁻⁶ cm/s; the efflux ratio (usually the permeability from basolateral to apical divided by that in the opposite direction, in the common usage) at 2 h, 5 μM is 0.95; the recovery was 106%. For the same molecule, in the data set with P-gp (MDR1), the Papp A→B at 2 h, 1 μM turned out to be 27.9 ×10⁻⁶ cm/s; the Papp B→A at 2 h, 1 μM stood at 31 ×10⁻⁶ cm/s; the efflux ratio at 2 h, 1 μM turned out to be 1.11; the recovery was found to be 99.9%. Further, in the data set with Caco-2 cells, the “Recovery% (BL-AP)” value was 100.41%.

These data come from paper PMC10726475, “Atypical N-Alkyl to N-Noralkoxy Switch in a Dual cSRC/BCR-ABL1 Kinase Inhibitor Improves Drug Efflux and hERG Affinity” (ACS Medicinal Chemistry Letters, 2023).
